Converted amounts (≈) assume the structure as drawn.
How the values were obtained:
[1] = test system: Escherichia coli; assay: Antibacterial activity against Escherichia coli ATCC 25922 assessed as diameter of inhibition zone at 50 mg/ml incubated for 24 hrs by paper disk diffusion method; assay type: functional; settings: read-out: DIZ
[2] = test system: HepG2; assay: Anticancer activity against human HepG2 cells assessed as reduction in cell viability incubated for 48 hrs by MTT assay; assay type: functional, cell-based; settings: HepG2, 48 h
[3] = test system: MCF7; assay: Anticancer activity against human MCF7 cells assessed as reduction in cell viability incubated for 24 hrs by MTT colorimetric assay; assay type: functional, cell-based; settings: MCF7, 24 h
[4] = test system: HCT-116; assay: Anticancer activity against human HCT-116 cells assessed as reduction in cell viability incubated for 24 hrs by MTT colorimetric assay; assay type: functional, cell-based; settings: HCT-116, 24 h
[5] = test system: HepG2; assay: Anticancer activity against human HepG2 cells assessed as reduction in cell viability incubated for 24 hrs by MTT colorimetric assay; assay type: functional, cell-based; settings: HepG2, 24 h
[6] = test system: Bacillus subtilis; assay: Antibacterial activity against Bacillus subtilis assessed as diameter of inhibition zone at 100 ug/ml by disc diffusion method; assay type: functional; settings: read-out: DIZ
[7] = test system: Escherichia coli; assay: Antibacterial activity against Escherichia coli assessed as diameter of inhibition zone at 100 ug/ml by disc diffusion method; assay type: functional; settings: read-out: DIZ
[8] = test system: Staphylococcus aureus; assay: Antibacterial activity against Staphylococcus aureus assessed as diameter of inhibition zone at 100 ug/ml by disc diffusion method; assay type: functional; settings: read-out: DIZ
[9] = test system: Klebsiella pneumoniae; assay: Antibacterial activity against Klebsiella pneumoniae assessed as diameter of inhibition zone at 100 ug/ml by disc diffusion method; assay type: functional; settings: read-out: DIZ
[10] = Antioxidant activity assessed as NO radical scavenging activity; assay type: functional
[11] = Antioxidant activity assessed as DPPH radical scavenging activity; assay type: functional
[12] = Antioxidant activity assessed as H2O2 radical scavenging activity; assay type: functional
[13] = test system: Staphylococcus aureus; assay: Antibacterial activity against Staphylococcus aureus assessed as bacterial growth inhibition by broth microdilution method; assay type: functional
[14] = test system: Mycobacterium tuberculosis; assay: Antitubercular activity against Mycobacterium tuberculosis H37Rv assessed as bacterial growth inhibition incubated for 24 hrs by MABA assay; assay type: functional
[15] = test system: Staphylococcus aureus; assay: Antibacterial activity against Staphylococcus aureus assessed as inhibition of bacterial growth; assay type: functional
[16] = test system: Salmonella typhimurium; assay: Antibacterial activity against Salmonella typhimurium MTCC 98 assessed as bacterial growth inhibition by broth microdilution method; assay type: functional, Salmonella enterica subsp. enterica serovar Typhimurium; settings: Salmonella enterica
[17] = test system: Klebsiella pneumoniae; assay: Antibacterial activity against Klebsiella pneumoniae assessed as bacterial growth inhibition by broth microdilution method; assay type: functional
[18] = test system: Pseudomonas aeruginosa; assay: Antibacterial activity against Pseudomonas aeruginosa assessed as bacterial growth inhibition by broth microdilution method; assay type: functional
[19] = test system: Escherichia coli; assay: Antibacterial activity against Escherichia coli assessed as bacterial growth inhibition by broth microdilution method; assay type: functional
[20] = test system: Escherichia coli; assay: Antibacterial activity against Escherichia coli MTCC 723 assessed as diameter of inhibition zone at 0.1 mg/ml incubated for 24 hrs by agar well diffusion method; assay type: functional; settings: read-out: DIZ
[21] = target: T1, Alpha-glucosidase (Saccharomyces cerevisiae S288c, UniProt P53341+P38158+P07265); assay: Inhibition of Saccharomyces cerevisiae alpha-glucosidase preincubated for 5 mins followed by PNP-GLUC substrate addition and measured after 20 mins by spectroscopic analysis; assay type: protein assay
[22] = target: Albumin (Bos taurus, UniProt P02769); assay: […] bovine serum albumin denaturation incubated for 23 mins by UV-Visible spectrophotometry
[23] = Inhibition of porcine pancreatic alpha-amylase preincubated for 10 mins followed by substrate starch addition and measured after 10 mins by colorimetric analysis; design: species or system Sus scrofa
[24] = Antiproliferative activity against human […] cells assessed as reduction in cell proliferation; assay type: functional, cell-based
[25] = test system: MCF7; assay: Antiproliferative activity against human MCF7 cells assessed as reduction in cell proliferation; assay type: functional, cell-based
[26] = test system: HepG2; assay: Antiproliferative activity against human HepG2 cells assessed as reduction in cell proliferation; assay type: functional, cell-based
[27] = test system: Aspergillus fumigatus; assay: Antifungal activity against Aspergillus fumigatus MTCC 227 assessed as fungal growth inhibition by broth microdilution method; assay type: functional
[28] = test system: Plasmodium falciparum; assay: microbe, parasite or virus in culture
[29] = test system: Clostridium tetani; assay: Antibacterial activity against Clostridium tetani MTCC 449 assessed as bacterial growth inhibition by broth microdilution method; assay type: functional
[30] = test system: Mycobacterium tuberculosis; assay: Antitubercular activity against Mycobacterium tuberculosis H37Rv assessed as bacterial growth inhibition at 100 ug/ml; assay type: functional
[31] = test system: Mycobacterium tuberculosis; assay: Antitubercular activity against Mycobacterium tuberculosis H37Rv assessed as bacterial growth inhibition at 250 ug/ml; assay type: functional
[32] = target: T1, Alpha-glucosidase; assay: Inhibition of Saccharomyces cerevisiae alpha-glucosidase assessed as decrease in release of p-nitrophenol using pNPG as substrate incubated for 10 mins by spectroscopic analysis; assay type: protein assay

## O=c1[nH]c(-c2ccccc2)nc2c1C(c1ccc(Cl)cc1)C=C(c1cc3ccccc3oc1=O)O2 (centres undefined)
[1]
  zone of inhibition at 50000 µg/mL: 10 mm

## COc1ccc(C2CC(=O)Oc3[nH]c(=O)[nH]c(=O)c32)cc1 (centres undefined)
[2]
  IC50: 10.6 µM

## N#CC(C#N)=C1c2c(-c3ccccc3)n[nH]c2Oc2[nH]c(=O)nc(-c3ccccc3O)c21
[3]
  IC50: 30.1 µM
[4]
  IC50: 30.1 µM
[5]
  IC50: 30.1 µM

## CCOC(=O)C1=C(C)Oc2nc(C)n(Cc3cn(-c4ccc([N+](=O)[O-])cc4)nn3)c(=O)c2C1c1ccc([N+](=O)[O-])cc1 (centres undefined)
[6]
  zone of inhibition at 100 µg/mL: 12.5 mm
[7]
  zone of inhibition at 100 µg/mL: 14.5 mm
[8]
  zone of inhibition at 100 µg/mL: 14 mm
[9]
  zone of inhibition at 100 µg/mL: 14 mm

## N#CC1=C(N)Oc2[nH]nc(-c3ccccc3)c2C1c1coc2ccccc2c1=O (centres undefined)
[3]
  IC50: 69.8 µg/mL
[4]
  IC50: 54.1 µg/mL
[5]
  IC50: 57.3 µg/mL

## Nc1ncnc2c1C(c1ccc(Cl)cc1)c1ccc(O)cc1O2 (centres undefined)
[10]
  IC50: 50.32 µg/mL (≈ 154 µM)
[11]
  IC50: 36.82 µg/mL (≈ 113 µM)
[12]
  IC50: 53.54 µg/mL (≈ 164 µM)

## CCOC(=O)C1=C(C)Oc2nc(C)n(Cc3cn(-c4cccc(C(F)(F)F)c4)nn3)c(=O)c2C1c1ccc([N+](=O)[O-])cc1 (centres undefined)
[6]
  zone of inhibition at 100 µg/mL: 12 mm
[7]
  zone of inhibition at 100 µg/mL: 14 mm
[9]
  zone of inhibition at 100 µg/mL: 15.5 mm

## O=C(O)c1cn(C2CC2)c2cc(N3CCNCC3)c(F)cc2c1=O [CIPROFLOXACIN]
[13]
  MIC: 3.12 µg/mL (≈ 9.42 µM)
[14]
  MIC: 3.12 µg/mL (≈ 9.43 µM)
[15]
  MIC: 50 µg/mL (≈ 151 µM)
[16]
  MIC: 25 µg/mL (≈ 75.4 µM)
[17]
  MIC: 3.12 µg/mL (≈ 9.42 µM)
[18]
  MIC: 3.12 µg/mL (≈ 9.42 µM)
[19]
  MIC: 3.12 µg/mL (≈ 9.42 µM)

## O=C(C1=C(c2ccccc2O)Oc2[nH]c(=S)[nH]c(=O)c2C1c1ccccc1)N1CCCCC1 (centres undefined)
[20]
  zone of inhibition at 100 µg/mL: 13.1 mm
[21]
  IC50: 7745 µM
[22]
  IC50: 19.9 µM
[23]
  IC50: 22.1 µM

## Cc1cc(C(C)(C)C)c(O)c(C(C)(C)C)c1 [BUTYLATED HYDROXYTOLUENE]
[10]
  IC50: 56.9 µg/mL (≈ 258 µM)
[11]
  IC50: 37.52 µg/mL (≈ 170 µM)
[12]
  IC50: 65.33 µg/mL (≈ 296 µM)

## N#CC(C#N)=C1c2c(-c3ccccc3)n[nH]c2Oc2[nH]c(=S)nc(-c3ccccc3O)c21
[3]
  IC50: 22.6 µM
[4]
  IC50: 22.6 µM
[5]
  IC50: 22.6 µM

## COc1ccc(C2CC(=O)Oc3[nH]c(=O)[nH]c(=O)c32)cc1OC (centres undefined)
[2]
  IC50: 8.9 µM

## Cc1ccc(S(=O)(=O)Nn2cnc3c(c2=N)C(c2cn(-c4ccccc4)nc2-c2ccccc2)c2c(ccc4ccccc24)O3)cc1 (centres undefined)
[24]
  IC50: 4.9 µM
[25]
  IC50: 9.29 µM
[26]
  IC50: 10 µM

## CCOC(=O)C1=C(N)Oc2[nH]c(=S)[nH]c(=O)c2C1c1c(C)nn(-c2ccccc2)c1-n1ccnc1 (centres undefined)
[27]
  MIC: 200 µg/mL (≈ 407 µM)
[28]
  IC50: 0.97 µg/mL (≈ 1.97 µM)
[29]
  MIC: 100 µg/mL (≈ 203 µM)
[30]
  inhibition at 100 µg/mL: 30%
[31]
  inhibition at 250 µg/mL: 37%

## COc1cc(/C=C/C(=O)C2=C(/C=C/c3ccc(O)c(OC)c3)Oc3[nH]c(=O)[nH]c(=O)c3C2c2c[nH]c3ccccc23)ccc1O (centres undefined)
[32]
  IC50: 35.3 µM

## COc1ccc(C2CC(=O)Oc3[nH]c(=O)[nH]c(=O)c32)cc1O (centres undefined)
[2]
  IC50: 8.8 µM

## N#CC(C#N)=C1c2c(-c3ccccc3)n[nH]c2Oc2c1c(-c1ccccc1O)[nH]c1nc(=O)[nH]c(=O)c2-1
[3]
  IC50: 22.6 µM
[4]
  IC50: 18.5 µM
[5]
  IC50: 21.9 µM

— ChEMBL document CHEMBL5241112, “Insights into the recent progress in the medicinal chemistry of pyranopyrimidine analogs” (RSC Med Chem, 2022)
